± gives the expanded uncertainty stated by the source.
Assay: wn = mass fraction of the nth substance listed
Conditions: 101 kPa, Liquid, Alternating current cell with electrodes, w1 = 0.01

CCCCCCCCCCCC[N+](CC)(CC)CCCCCCCCCCCC.[Br-] [didodecyldiethylammonium bromide] + O
Conditions	electrical conductivity [S/m]
315.45 K	0.0223 ± 0.0089
315.55 K	0.0224 ± 0.009
315.65 K	0.0224 ± 0.009
315.75 K	0.0226 ± 0.009
315.85 K	0.0227 ± 0.0091
315.95 K	0.0228 ± 0.0091
316.05 K	0.0228 ± 0.0091
316.15 K	0.023 ± 0.0092
316.25 K	0.023 ± 0.0092
316.35 K	0.0231 ± 0.0092
316.45 K	0.0233 ± 0.0093
316.55 K	0.0234 ± 0.0094
316.65 K	0.0236 ± 0.0094
316.85 K	0.0238 ± 0.0095
317.05 K	0.0239 ± 0.0096
317.15 K	0.0242 ± 0.0097
317.25 K	0.0242 ± 0.0097
317.35 K	0.0244 ± 0.0098
317.45 K	0.0245 ± 0.0098
317.55 K	0.0246 ± 0.0098
317.65 K	0.0247 ± 0.0099
317.75 K	0.0249 ± 0.01
317.85 K	0.0249 ± 0.01
317.95 K	0.0252 ± 0.01
318.05 K	0.0253 ± 0.01
318.15 K	0.0253 ± 0.01
318.25 K	0.0255 ± 0.01
318.35 K	0.0257 ± 0.01
318.45 K	0.0259 ± 0.01
318.55 K	0.0259 ± 0.01
318.65 K	0.026 ± 0.01
318.75 K	0.0262 ± 0.01
318.85 K	0.0263 ± 0.011
318.95 K	0.0264 ± 0.011
319.05 K	0.0265 ± 0.011
319.15 K	0.0266 ± 0.011
319.25 K	0.0268 ± 0.011
319.35 K	0.027 ± 0.011
319.45 K	0.0271 ± 0.011
319.55 K	0.0272 ± 0.011
319.65 K	0.0273 ± 0.011
319.75 K	0.0275 ± 0.011
319.85 K	0.0276 ± 0.011
319.95 K	0.0277 ± 0.011
320.05 K	0.0278 ± 0.011
320.15 K	0.028 ± 0.011
320.25 K	0.0282 ± 0.011
320.35 K	0.0283 ± 0.011
320.45 K	0.0283 ± 0.011
320.55 K	0.0286 ± 0.011
320.65 K	0.0288 ± 0.012
320.75 K	0.0289 ± 0.012
320.85 K	0.029 ± 0.012
320.95 K	0.0292 ± 0.012
321.05 K	0.0293 ± 0.012
321.15 K	0.0294 ± 0.012
321.25 K	0.0296 ± 0.012
321.35 K	0.0298 ± 0.012
321.45 K	0.03 ± 0.012
321.55 K	0.0301 ± 0.012
321.65 K	0.0303 ± 0.012
321.75 K	0.0304 ± 0.012
321.85 K	0.0306 ± 0.012
321.95 K	0.0308 ± 0.012
322.15 K	0.031 ± 0.012
322.25 K	0.0312 ± 0.012
322.35 K	0.0314 ± 0.013
322.45 K	0.0315 ± 0.013
322.55 K	0.0316 ± 0.013
322.65 K	0.0317 ± 0.013
322.75 K	0.0318 ± 0.013
322.85 K	0.0319 ± 0.013
323.35 K	0.0323 ± 0.013
323.55 K	0.0324 ± 0.013
323.75 K	0.0326 ± 0.013
324.05 K	0.033 ± 0.013
324.25 K	0.0332 ± 0.013
324.55 K	0.0334 ± 0.013
324.75 K	0.0338 ± 0.014
325.05 K	0.0339 ± 0.014
325.35 K	0.0344 ± 0.014
325.55 K	0.0348 ± 0.014
325.85 K	0.0352 ± 0.014
326.35 K	0.036 ± 0.014
326.75 K	0.0368 ± 0.015
327.35 K	0.0372 ± 0.015
327.95 K	0.0384 ± 0.015
328.55 K	0.0392 ± 0.016
328.85 K	0.0402 ± 0.016
329.55 K	0.0411 ± 0.016
330.25 K	0.0426 ± 0.017
331.05 K	0.0442 ± 0.018
331.85 K	0.0461 ± 0.018
332.25 K	0.0461 ± 0.018
332.95 K	0.0482 ± 0.019
333.35 K	0.049 ± 0.02
333.55 K	0.0491 ± 0.02
333.75 K	0.0491 ± 0.02
333.85 K	0.0493 ± 0.02
333.95 K	0.0496 ± 0.02
334.05 K	0.0501 ± 0.02
334.15 K	0.0501 ± 0.02
334.25 K	0.0504 ± 0.02
334.35 K	0.0505 ± 0.02
334.45 K	0.0507 ± 0.02
334.55 K	0.0507 ± 0.02
334.65 K	0.0509 ± 0.02
334.75 K	0.0512 ± 0.02
334.85 K	0.0514 ± 0.021
334.95 K	0.0514 ± 0.021
335.05 K	0.0514 ± 0.021
335.15 K	0.0515 ± 0.021
335.25 K	0.0519 ± 0.021
